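Grown in 96-well plates, cells were treated for 48 hours with each compound at five concentrations. Insufficient inhibition: endpoint recorded as highest concentration tested. Abbreviation: GI50, concentration required for 50% inhibition of growth. The concentration for full growth arrest is given as TGI.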
Legend:
Experiment in all cases: NCI-60 cell line screen, 48 h
HCC-2998 colon = tested on: HCC-2998 colon
OVCAR-8 ovarian = tested on: OVCAR-8 ovarian
U251 CNS = tested on: U251 CNS
HCT-116 colon = tested on: HCT-116 colon
HL-60(TB) leukemia = tested on: HL-60(TB) leukemia
HT29 colon = tested on: HT29 colon
A549 NSCLC = tested on: A549 NSCLC
SNB-19 CNS = tested on: SNB-19 CNS
SK-OV-3 ovarian = tested on: SK-OV-3 ovarian
NCI-H522 lung = tested on: NCI-H522 lung

## CCCCCn1ncc(-c2c(O)c(O)cc3c(O)c(-c4c(C)cc5c(-c6cnn(CCCCC)n6)c(O)c(O)cc5c4O)c(C)cc23)n1
HCC-2998 colon
  GI50: 0.471 µM
  TGI: 4.24 µM
OVCAR-8 ovarian
  GI50: 0.125 µM
  TGI: 3.2 µM
U251 CNS
  GI50: 0.0351 µM
  TGI: 1.89 µM
HCT-116 colon
  GI50: 0.0262 µM
  TGI: 4.07 µM
HL-60(TB) leukemia
  GI50: 0.124 µM
  TGI: 3.57 µM
HT29 colon
  GI50: 0.12 µM
  TGI: 3.45 µM
A549 NSCLC
  GI50: 0.117 µM
  TGI: 4.47 µM
SNB-19 CNS
  GI50: 0.115 µM
  TGI: 5.26 µM
SK-OV-3 ovarian
  GI50: 0.142 µM
  TGI: 2.64 µM
NCI-H522 lung
  GI50: 0.0984 µM
  TGI: 1.07 µM

## CC[O+]=c1cccc2ssnc1-2
HCC-2998 colon
  TGI: > 100 µM
OVCAR-8 ovarian
  TGI: > 100 µM
U251 CNS
  TGI: > 100 µM
HCT-116 colon
  TGI: > 100 µM
HL-60(TB) leukemia
  TGI: > 100 µM
HT29 colon
  TGI: > 100 µM
A549 NSCLC
  TGI: > 100 µM
SNB-19 CNS
  TGI: > 100 µM
SK-OV-3 ovarian
  TGI: > 100 µM
NCI-H522 lung
  TGI: 82.6 µM

## CCC(=O)[O-].CCC(=O)[O-].N.N.N.N.[Co+3].[O-][Cl+3]([O-])([O-])[O-]
HCC-2998 colon
  GI50: > 100 µM
  TGI: > 100 µM
OVCAR-8 ovarian
  GI50: > 100 µM
  TGI: > 100 µM
U251 CNS
  GI50: > 100 µM
  TGI: > 100 µM
HCT-116 colon
  GI50: > 100 µM
  TGI: > 100 µM
HL-60(TB) leukemia
  GI50: > 100 µM
  TGI: > 100 µM
HT29 colon
  GI50: > 100 µM
  TGI: > 100 µM
A549 NSCLC
  GI50: > 100 µM
  TGI: > 100 µM
SNB-19 CNS
  GI50: > 100 µM
  TGI: > 100 µM
SK-OV-3 ovarian
  GI50: > 100 µM
  TGI: > 100 µM
NCI-H522 lung
  GI50: > 100 µM
  TGI: > 100 µM

## C=C(C)[C@@H]1CC[C@]2(c3ncc(C)o3)CC[C@]3(C)[C@H](CC[C@@H]4[C@@](C)(CCC#N)[C@H](C(=C)C)CC[C@]43C)[C@@H]12
HCC-2998 colon
  GI50: 3.51 µM
  TGI: 12.4 µM
OVCAR-8 ovarian
  GI50: 6.57 µM
  TGI: 21.9 µM
U251 CNS
  GI50: 3.54 µM
  TGI: 13.6 µM
HCT-116 colon
  GI50: 4.41 µM
  TGI: 16.4 µM
HL-60(TB) leukemia
  GI50: 2.49 µM
  TGI: 6.83 µM
HT29 colon
  GI50: 3.81 µM
  TGI: 14.8 µM
A549 NSCLC
  GI50: 6.19 µM
  TGI: 22.3 µM
SNB-19 CNS
  GI50: 3.66 µM
  TGI: 14.5 µM
SK-OV-3 ovarian
  GI50: 11.4 µM
  TGI: 25.2 µM
NCI-H522 lung
  GI50: 1.9 µM
  TGI: 4.16 µM

## COc1ncnc2c1ncn2C/C(Br)=C(\Br)CCl
HCC-2998 colon
  GI50: 17.2 µM
  TGI: 31.2 µM
OVCAR-8 ovarian
  GI50: 3.01 µM
  TGI: 7.84 µM
U251 CNS
  GI50: 1.74 µM
  TGI: 3.64 µM
HCT-116 colon
  GI50: 1.73 µM
  TGI: 3.49 µM
HL-60(TB) leukemia
  GI50: 2.03 µM
  TGI: 6.32 µM
HT29 colon
  GI50: 1.63 µM
  TGI: 3.71 µM
A549 NSCLC
  GI50: 10.8 µM
  TGI: 25.9 µM
SNB-19 CNS
  GI50: 12.1 µM
  TGI: 24.5 µM
SK-OV-3 ovarian
  GI50: 14.8 µM
  TGI: 28 µM
NCI-H522 lung
  GI50: 0.875 µM
  TGI: 2.25 µM

## CCN(CCc1ccc(F)cc1)c1ccc(CO)c(Cl)c1
HCC-2998 colon
  GI50: 12.6 µM
  TGI: 26.5 µM
OVCAR-8 ovarian
  GI50: 10.8 µM
  TGI: 27.4 µM
U251 CNS
  GI50: 4.06 µM
  TGI: 17.3 µM
HCT-116 colon
  GI50: 1.85 µM
  TGI: 13.5 µM
HL-60(TB) leukemia
  GI50: 9.01 µM
  TGI: 30.3 µM
HT29 colon
  GI50: 11.3 µM
  TGI: 27.3 µM
A549 NSCLC
  GI50: 9.36 µM
  TGI: 24.4 µM
SNB-19 CNS
  GI50: 13.2 µM
  TGI: 26.6 µM
SK-OV-3 ovarian
  GI50: 12.4 µM
  TGI: 27.8 µM
NCI-H522 lung
  GI50: 10.9 µM
  TGI: 25.4 µM

## O=C(O)c1cc2c3c(c1)[C@H]1C=CC[C@H]1CN3CC1CC=CC21 (stereo not given in full)
HCC-2998 colon
  TGI: > 100 µM
OVCAR-8 ovarian
  TGI: > 100 µM
U251 CNS
  TGI: > 100 µM
HCT-116 colon
  TGI: > 100 µM
HL-60(TB) leukemia
  TGI: > 100 µM
HT29 colon
  TGI: > 100 µM
A549 NSCLC
  TGI: > 100 µM
SNB-19 CNS
  TGI: > 100 µM
SK-OV-3 ovarian
  TGI: > 100 µM
NCI-H522 lung
  TGI: > 100 µM

## CCCCn1c(=O)c(/C=C/C(=O)/C=C/c2ccc(O)c(OC)c2)cc2ccc(Cl)cc21
HCC-2998 colon
  GI50: 2.05 µM
  TGI: 3.54 µM
OVCAR-8 ovarian
  GI50: 2.47 µM
  TGI: 9.49 µM
U251 CNS
  GI50: 1.59 µM
  TGI: 3.08 µM
HCT-116 colon
  GI50: 1.52 µM
  TGI: 3 µM
HL-60(TB) leukemia
  GI50: 2.34 µM
  TGI: 13.4 µM
HT29 colon
  GI50: 0.846 µM
  TGI: 2.57 µM
A549 NSCLC
  GI50: 1.72 µM
  TGI: 4.84 µM
SNB-19 CNS
  GI50: 1.62 µM
  TGI: 3.3 µM
SK-OV-3 ovarian
  GI50: 3.82 µM
  TGI: 14.2 µM
NCI-H522 lung
  GI50: 1.78 µM
  TGI: 3.86 µM

## Cc1occc1C(=S)Nc1ccc(Cl)c(C(=O)OCC2CC2)c1
HCC-2998 colon
  TGI: > 100 µM
OVCAR-8 ovarian
  TGI: > 100 µM
U251 CNS
  TGI: > 100 µM
HCT-116 colon
  TGI: > 100 µM
HL-60(TB) leukemia
  TGI: 75.3 µM
HT29 colon
  TGI: > 100 µM
A549 NSCLC
  TGI: > 100 µM
SNB-19 CNS
  TGI: > 100 µM
SK-OV-3 ovarian
  TGI: > 100 µM
NCI-H522 lung
  TGI: > 100 µM

## O=C(/C=C/c1ccccc1)c1ccc(O)c(CN2CCN(c3cc4c(cc3F)c(=O)c(C(=O)O)cn4C3CC3)CC2)c1
HCC-2998 colon
  GI50: 3.11 µM
  TGI: 53.6 µM
OVCAR-8 ovarian
  GI50: 0.592 µM
  TGI: > 100 µM
U251 CNS
  GI50: 0.389 µM
  TGI: > 100 µM
HCT-116 colon
  GI50: 0.43 µM
  TGI: > 100 µM
HL-60(TB) leukemia
  GI50: 0.77 µM
  TGI: > 100 µM
HT29 colon
  GI50: 1.58 µM
  TGI: > 100 µM
A549 NSCLC
  GI50: 3.17 µM
  TGI: > 100 µM
SNB-19 CNS
  GI50: 0.984 µM
  TGI: > 100 µM
SK-OV-3 ovarian
  GI50: 2.77 µM
  TGI: > 100 µM
NCI-H522 lung
  GI50: 2.42 µM
  TGI: > 100 µM

## CC(=O)[CH-]C(=O)c1ccccc1.CC(=O)[CH-]C(=O)c1ccccc1.[O-]c1ccc(O)cc1.[O-]c1ccc(O)cc1.[Ti+4]
HCC-2998 colon
  GI50: 16.1 µM
  TGI: 33.6 µM
OVCAR-8 ovarian
  GI50: 13.5 µM
  TGI: 31.5 µM
U251 CNS
  GI50: 11.1 µM
  TGI: 24 µM
HCT-116 colon
  GI50: 15.1 µM
  TGI: 28.3 µM
HL-60(TB) leukemia
  GI50: 3.71 µM
  TGI: 30.6 µM
HT29 colon
  GI50: 21.5 µM
  TGI: 59.7 µM
A549 NSCLC
  GI50: 23.5 µM
  TGI: > 100 µM
SNB-19 CNS
  GI50: 18.9 µM
  TGI: 40 µM
SK-OV-3 ovarian
  GI50: 24.4 µM
  TGI: 76.8 µM
NCI-H522 lung
  GI50: 1.97 µM
  TGI: 4.37 µM

## COc1cc([N+](=O)[O-])c(S(=O)(=O)O)cc1-n1nc(-c2ccccc2)n[n+]1-c1cc(S(=O)(=O)[O-])c([N+](=O)[O-])cc1OC
HCC-2998 colon
  TGI: > 100 µM
OVCAR-8 ovarian
  TGI: > 100 µM
U251 CNS
  TGI: > 100 µM
HCT-116 colon
  TGI: > 100 µM
HL-60(TB) leukemia
  TGI: > 100 µM
HT29 colon
  TGI: > 100 µM
A549 NSCLC
  TGI: > 100 µM
SNB-19 CNS
  TGI: > 100 µM
SK-OV-3 ovarian
  TGI: > 100 µM
NCI-H522 lung
  TGI: > 100 µM

## CCc1nc2cc(/C=C/C(=O)NO)c(F)cc2c(=O)n1CCc1ccccc1
HCC-2998 colon
  GI50: 1.57 µM
  TGI: 11.3 µM
OVCAR-8 ovarian
  GI50: 0.753 µM
  TGI: 9.22 µM
U251 CNS
  GI50: 0.872 µM
  TGI: 3.18 µM
HCT-116 colon
  GI50: 0.313 µM
  TGI: 2.91 µM
HL-60(TB) leukemia
  GI50: 3.71 µM
  TGI: > 100 µM
HT29 colon
  GI50: 0.588 µM
  TGI: 12.5 µM
A549 NSCLC
  GI50: 1.35 µM
  TGI: 5.39 µM
SNB-19 CNS
  GI50: 1.32 µM
  TGI: 12.4 µM
SK-OV-3 ovarian
  GI50: 1.68 µM
  TGI: 5.28 µM
NCI-H522 lung
  GI50: 0.502 µM
  TGI: 3.98 µM

From PubChem BioAssay (NCI)
